Laboratory results as given in patent US20080200441A1, “ESTROGEN RECEPTOR MODULATORS ASSOCIATED PHARMACEUTICAL COMPOSITIONS AND METHODS OF USE” (University of Southern California, priority 2007, published 2008).

Experiments:
Bcl-2 [1] = experiment: Bcl-2 expression, Western immunoblotting; conditions: primary hippocampal neurons
Bcl-2 [2] = conditions: previously observed; cited from earlier work
[3] = test system: rat primary hippocampal neurons; conditions: previous reports; cited from earlier work
spinophilin = conditions: primary neurons, earlier findings; cited from earlier work
ERK2 = experiment: ERK phosphorylation, Western immunoblotting; conditions: primary hippocampal neurons
MCF-7 cells = experiment: MCF-7 cell proliferation, MTT; assay type: cell-based, human; conditions: 3 days, serially diluted concentrations, MTT at 570 nm
Bcl-XL = conditions: previously observed; cited from earlier work
[4] = test system: rat primary hippocampal neurons; experiment: Intracellular calcium imaging in hippocampal neurons; assay type: cell-based
Experimental: The [Ca^2+]i in hippocampal neurons was measured by ratiometric Ca^2+ imaging with the Ca^2+-sensitive fluorescent dye fura-2. Prior to imaging, hippocampal neurons were loaded with 2 μM fura-2 acetoxymethyl ester (fura-2 AM, Molecular Probes, Inc., Eugene, Oreg.) for 30-45 min at 37° C. in HEPES-Buffered Solution (HBS), containing (in mM): 100 NaCl, 2.0 KCl, 1.0 CaCl2, 1.0 MgCl2, 1.0 NaH2PO4, 4.2 NaHCO3, 12.5 HEPES and 10.0 glucose. Excess fura-2 AM dye was removed by washing with HBS and then the neurons were incubated in HBS for 30 min at 37° C. to equilibrate. The coverslip with fura-2 AM-loaded neurons was removed and attached to the coverslip clamp chamber MS-502S (ALA Scientific Instruments, Westbury, N.Y.) for the Ca^2+ imaging analysis. Neurons were placed on the stage of an inverted microscope (MT-2, Olympus) equipped with epifluorescence optics (20× Nikon), The perfusion solution is HBS and the perfusion system connected to the perfusion chamber was balanced using two variable speed pumps. Imaging was performed at room temperature. Neurons were perfused at a flow rate of 2 ml/min. Fura-2 was excited by a xenon light source at 340 and 380 nm. The emitted fluorescence was filtered through a 520 nm filter, captured with an intensified CCD camera (COHU) and analyzed with InCyt Im2 software (Intracellular Imaging, Cincinnati, Ohio). The concentration of Ca^2+ was calculated by comparing the ratio of fluorescence at 340 and 380 nm against a standard curve of known [Ca^2+].

For `C[C@]12CCC3c4ccc(O)cc4CC(CCCCCCCCC[S+]([O-])CCCC(F)(F)C(F)(F)F)C3C1CC[C@@H]2O` (stereo partly shown) [ICI 182,780], the “expression of antiapoptotic protein Bcl-2” value (Bcl-2 [1]) is listed as “potentiate the expression of antiapoptotic protein Bcl-2”, the Bcl-2 expression (Bcl-2 [2]) is listed as “Upregulation” and the “concentration of maximal neuroprotection” value [3] is listed as 10 nM. For the same compound, the spinophilin expression (spinophilin) was “comparably effective to 17β-estradiol in upregulating spinophilin expression”, the “phosphorylation of ERK” value (ERK2) was “activate the phosphorylation of ERK” and the MCF-7 cell proliferation (MCF-7 cells) was “promoted MCF-7 cell proliferation in a concentration dependent manner”. The Bcl-XL expression (Bcl-XL) was “Upregulation”, the intracellular calcium rise ([4]; compound alone) was “directly induce intracellular calcium rise” and the “physiological glutamate-induced rise in calcium ion concentration” value ([4]; physiological glutamate) was “potentiates the physiological glutamate-induced rise in calcium ion concentration”. For the same compound, the “excitotoxic glutamate-induced rise in intracellular calcium” value ([4]; pretreated neurons, excitotoxic glutamate) was “attenuation of the glutamate-induced rise in intracellular calcium”.
